Measured values reported in ChEMBL document CHEMBL3400002, “Structure-activity study for (bis)ureidopropyl- and (bis)thioureidopropyldiamine LSD1 inhibitors with 3-5-3 and 3-6-3 carbon backbone architectures” (Bioorg Med Chem, 2015).

Tests used:
[1] = molecular target: T1, Amine oxidase [flavin-containing] A (Homo sapiens, UniProt P21397)
T1 sequence (P21397 whole entry): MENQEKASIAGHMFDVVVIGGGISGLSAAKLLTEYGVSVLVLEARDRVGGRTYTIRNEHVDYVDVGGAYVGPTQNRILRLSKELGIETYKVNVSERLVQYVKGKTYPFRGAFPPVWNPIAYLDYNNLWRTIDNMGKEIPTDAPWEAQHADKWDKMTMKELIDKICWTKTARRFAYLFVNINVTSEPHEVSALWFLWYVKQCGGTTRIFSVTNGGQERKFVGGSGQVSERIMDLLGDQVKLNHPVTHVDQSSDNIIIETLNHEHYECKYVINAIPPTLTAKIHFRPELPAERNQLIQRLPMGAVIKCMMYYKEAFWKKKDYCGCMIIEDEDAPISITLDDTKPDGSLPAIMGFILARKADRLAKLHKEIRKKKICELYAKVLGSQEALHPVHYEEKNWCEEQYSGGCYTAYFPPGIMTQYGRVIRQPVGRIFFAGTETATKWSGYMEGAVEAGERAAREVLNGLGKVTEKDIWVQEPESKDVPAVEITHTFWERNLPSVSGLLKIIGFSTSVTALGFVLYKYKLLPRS

[2] = molecular target: T2, Amine oxidase [flavin-containing] B (Homo sapiens, UniProt P27338)
T2 sequence (P27338 whole entry): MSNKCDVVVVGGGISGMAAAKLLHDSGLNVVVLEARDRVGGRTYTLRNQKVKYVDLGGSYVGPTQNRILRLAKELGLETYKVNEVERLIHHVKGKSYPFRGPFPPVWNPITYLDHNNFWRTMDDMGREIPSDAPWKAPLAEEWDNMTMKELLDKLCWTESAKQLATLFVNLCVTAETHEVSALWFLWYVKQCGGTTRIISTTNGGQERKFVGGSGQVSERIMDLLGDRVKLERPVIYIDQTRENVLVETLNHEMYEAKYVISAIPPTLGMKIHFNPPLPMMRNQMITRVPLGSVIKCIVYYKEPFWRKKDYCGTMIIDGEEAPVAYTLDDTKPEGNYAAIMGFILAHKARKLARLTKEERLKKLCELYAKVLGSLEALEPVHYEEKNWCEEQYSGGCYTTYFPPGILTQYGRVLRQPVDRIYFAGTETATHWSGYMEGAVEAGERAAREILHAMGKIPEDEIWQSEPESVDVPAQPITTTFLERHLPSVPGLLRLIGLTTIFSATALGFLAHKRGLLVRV

[3] = molecular target: Lysine-specific histone demethylase 1A (Homo sapiens) (UniProt O60341); experiment: Activation of human recombinant LSD1 at 10 uM after 30 mins to 4 hrs by fluorescence assay relative to control

IC50 [1] [µM]	IC50 [2] [µM]	Activity [3] [%]	SMILES
37	10	–	N=C(NCCCNCCCCCCCNCCCNC(=N)NC(=N)NCCC(c1ccccc1)c1ccccc1)NC(=N)NCCC(c1ccccc1)c1ccccc1
–	–	163	O=C(NCCCNCCCCCNCCCNC(=O)Nc1ccccc1)Nc1ccccc1
–	–	119	CCNC(=O)NCCCNCCCCCCNCCCNC(=O)NCC
–	–	110	O=C(NCCCNCCCCCCNCCCNC(=O)NCc1ccccc1)NCc1ccccc1
–	–	119	CCCNC(=O)NCCCNCCCCCCNCCCNC(=O)NCCC
